What was measured:
[1] = molecular target: T1, human P2X7 receptor (hP2X7) (Homo sapiens, UniProt Q99572); assay: Ethidium bromide accumulation assay in hP2X7-expressing HEK293 cells; type: cell-based; details: 10 μM compound with BzATP
T1 construct: expressed in transfected cells
T1 sequence (Q99572 1-595): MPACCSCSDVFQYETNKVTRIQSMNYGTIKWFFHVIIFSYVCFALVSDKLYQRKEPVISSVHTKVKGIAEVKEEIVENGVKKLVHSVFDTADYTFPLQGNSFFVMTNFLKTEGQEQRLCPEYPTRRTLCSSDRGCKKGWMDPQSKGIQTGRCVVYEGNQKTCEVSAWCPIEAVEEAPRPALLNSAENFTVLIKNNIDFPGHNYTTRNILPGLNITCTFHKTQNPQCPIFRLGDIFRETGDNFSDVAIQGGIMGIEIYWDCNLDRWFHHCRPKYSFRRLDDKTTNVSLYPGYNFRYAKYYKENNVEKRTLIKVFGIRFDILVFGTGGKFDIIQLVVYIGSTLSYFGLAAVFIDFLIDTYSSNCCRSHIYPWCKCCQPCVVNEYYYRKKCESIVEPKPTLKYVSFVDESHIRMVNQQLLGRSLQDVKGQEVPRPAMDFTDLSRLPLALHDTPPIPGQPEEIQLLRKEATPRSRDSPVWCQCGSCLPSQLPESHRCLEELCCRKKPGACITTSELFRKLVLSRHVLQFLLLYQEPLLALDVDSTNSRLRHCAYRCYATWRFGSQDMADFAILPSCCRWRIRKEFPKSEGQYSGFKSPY
Procedure: 1-2. Ethidium Bromide Accumulation Assay in hP2X-Expressing HEK293 Cells
HEK293 cells that are stably transfected with the human P2X7 receptor (P2X7R) were kept under a humidified atmosphere of 5% CO2 at 37° C. in DMEM supplemented with 10% (v/v) FBS, 2 mM L-glutamine and antibiotics (50 U/mL penicillin and 50 μg/ml streptomycin). BzATP-induced pore formation was measured using a fluorescence plate reader by measuring cellular absorption of ethidium in the hP2X7-expressing HEK293 cells. The hP2X7-expressing HEK293 cells were washed once with an appropriate assay buffer, and the buffer was also removed before subsequent analysis. All studies were performed at room temperature and the final assay volume was 100 μL. The cells were resuspended at 2.5×10^6 cells/mL in assay buffers consisting of 10 mM HEPES, 5 mM N-methyl-D-glucamine, 5.6 mM KCl, 10 mM D-glucose and 0.5 mM CaCl2 (pH 7.4) and supplemented with 280 mM sucrose or 140 mM NaCl.
In order to determine the antagonistic activity of the 5-hydroxyl-pyridine derivatives of the present invention and the reference compound (AZD9056), these compounds were added to the cells at a concentration of 10 μM with BzATP without pre-incubation. The cells were incubated for 2 hours under a humidified atmosphere of 5% CO2 at 37° C., and the absorption of ethidium dye was observed by measuring fluorescence with a Bio-Tek instrument FL600 fluorescent plate reader (excitation wavelength of 530 nm and emission wavelength of 590 nm). The results are expressed as a percentage relative to the maximum cumulative amount of ethidium bromide when stimulated with BzATP alone.
In order to investigate the structure-activity relationship (SAR) of the compounds synthesized in the present invention, the antagonistic activity was evaluated by a two-electrode voltage clamp (TEVC) assay in Xenopus oocytes expressing the recombinant mP2X1 or hP2X3, respectively. The hP2X7R antagonistic activity was assessed using an ethidium ion accumulation assay in human HEK293 cells stably expressing the recombinant human P2X7R.

[2] = test system: SNL rats (mechanical allodynia); assay: Antiallodynic effect (von Frey) in spinal nerve ligation (SNL) rats; type: in vivo, rat
Procedure: 3-1. Evaluation of In Vivo Efficacy
The antiallodynic effects (mechanical allodynia) were evaluated using rats according to a previously reported protocol. In order to evaluate the withdrawal threshold, rats (naive, SNL and CIPN) were placed on a plastic mesh floor of individual plastic cages. The rats were allowed to acclimate to the environment for 30 minutes and examined after intrathecal or intravenous administration to the caudal vein. The control group received the same volume of vehicle (intrathecal administration of saline or DMSO, intravenous administration of DMSO:PEG:PBS=1:6:3 v/v %) as the experimental groups. Evaluation of the mechanical withdrawal threshold was measured in responses to the application of calibrated von Frey filaments (Stoelting, Wood Dale, Ill., USA) to the hind paw of the rats through the holes on the mesh floor underneath the cage using the ‘up and down method’. A series of eight von Frey filaments (0.4, 0.7, 1.2, 2.0, 3.6, 5.5, 8.5, and 15 g) was applied perpendicular to the sole of the hind paw for 5 seconds while the head was bent. Active withdrawal or flinching of the paw was considered as a positive reaction. The absence of response in the rats, when a pressure was applied to 15 g von Frey filament, was used as a cut-off value. Only rats with definite allodynia (i.e., mechanical withdrawal threshold: less than 4 g after SNL or less than 5 g after CIPN) were tested. The rats after termination of the experiments were euthanized through an overdose of sevoflurane. The withdrawal threshold data for the von Frey filament test was calculated as % MPE (maximum possible effect) based on the following Calculation Equation: % MPE=[(Post-drug threshold−Post-injured baseline threshold)/(Cutoff threshold−post-injured baseline threshold)×100]. Dose-response data were analyzed using Scheffe's post hoc test and one-way analysis of variance (ANOVA).

Structure (SMILES)	hP2X7 % inhibition of ethidium bromide accumulation [1]	antiallodynic efficacy, MPE % ([2]; 1 μg, intrathecal administration)	paw withdrawal threshold ([2]; intrathecal administration, von Frey)	ED50 ([2]; Rattus norvegicus, antiallodynic effect, intravenous administration)
CCCc1nc(Cc2cccc(Oc3ccccc3)c2)c(C)c(C(=O)O)c1O [Compound 29, 3-Hydroxy-5-methyl-6-(3-phenoxybenzyl)-2-propylisonicotinic acid]	Inactive	58±19%	increase in paw withdrawal threshold	
CCCc1nc(CCc2ccc(OC)cc2)c(C(=O)O)c(C(=O)O)c1O [Compound 13d, 5-Hydroxy-2-(4-methoxyphenethyl)-6-propylpyridine-3,4-dicarboxylic acid]	inactive			
CCCc1nc(Cc2cccc(Oc3ccccc3)c2)c(C)c(C(=O)OC)c1O [Compound 28, Methyl 3-hydroxy-5-methyl-6-(3-phenoxybenzyl)-2-propylisonicotinate]				2.62 mg/kg

Source: patent US11319289B2, “5-hydroxy pyridine-based compound for use as P2X1 and P2X3 receptor antagonist and pharmaceutical composition comprising same” (GWANGJU INSTITUTE OF SCIENCE AND TECHNOLOGY, priority 2017, dated 2022)
